In ChEMBL document CHEMBL1201862, “PubChem BioAssay data set” (2004):
Active and inactive are the calls of the source. Rule as the data show it, for most assays here: actives have a measured IC50 and inactives only a lower limit.

Assays:
[1] = target: T1, Sphingosine 1-phosphate receptor 4 (Homo sapiens, UniProt O95977); assay: Late-stage fluorescence-based dose-response cell-based counterscreen assay to identify agonists of the Sphingosine 1-Phosphate Receptor 3 (S1P3): Sphingosine 1-Phosphate Receptor 4 (S1P4) agonist assay.; format: functional
T1 sequence (O95977 whole entry): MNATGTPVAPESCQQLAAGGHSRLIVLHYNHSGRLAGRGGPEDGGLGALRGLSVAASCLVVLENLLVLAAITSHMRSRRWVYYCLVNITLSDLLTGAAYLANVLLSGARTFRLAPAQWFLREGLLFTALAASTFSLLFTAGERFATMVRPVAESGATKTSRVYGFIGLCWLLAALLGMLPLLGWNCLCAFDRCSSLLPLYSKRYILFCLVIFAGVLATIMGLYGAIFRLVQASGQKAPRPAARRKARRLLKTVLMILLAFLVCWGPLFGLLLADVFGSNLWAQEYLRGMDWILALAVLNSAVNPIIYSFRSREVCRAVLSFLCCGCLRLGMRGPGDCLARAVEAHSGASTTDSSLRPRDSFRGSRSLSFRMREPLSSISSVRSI

[2] = target: Sphingosine 1-phosphate receptor 2 (Homo sapiens, UniProt O95136); assay: Late-stage fluorescence-based dose-response cell-based counterscreen assay to identify agonists of the Sphingosine 1-Phosphate Receptor 3 (S1P3): Sphingosine 1-Phosphate Receptor 2 (S1P2) agonist assay.; format: functional
Chain of Sphingosine 1-phosphate receptor 2 (O95136 whole entry): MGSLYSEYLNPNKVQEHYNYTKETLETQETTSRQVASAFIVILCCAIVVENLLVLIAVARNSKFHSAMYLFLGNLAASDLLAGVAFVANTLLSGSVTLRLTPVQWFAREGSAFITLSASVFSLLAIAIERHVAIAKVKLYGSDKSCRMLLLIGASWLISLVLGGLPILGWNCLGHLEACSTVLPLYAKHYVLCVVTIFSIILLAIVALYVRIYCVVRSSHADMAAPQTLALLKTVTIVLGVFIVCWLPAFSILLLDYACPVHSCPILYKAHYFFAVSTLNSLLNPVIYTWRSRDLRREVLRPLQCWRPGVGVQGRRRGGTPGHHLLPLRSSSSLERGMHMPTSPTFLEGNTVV

[3] = target: T2, Microphthalmia-associated transcription factor (Homo sapiens, UniProt O75030); assay: TRPM1 promoter luciferase signal decrease, dose response, MITF inhibitor project, cell-based, SK-MEL-5, cherry-picked, set 3 (AID 493073); format: functional
T2 sequence (O75030 whole entry): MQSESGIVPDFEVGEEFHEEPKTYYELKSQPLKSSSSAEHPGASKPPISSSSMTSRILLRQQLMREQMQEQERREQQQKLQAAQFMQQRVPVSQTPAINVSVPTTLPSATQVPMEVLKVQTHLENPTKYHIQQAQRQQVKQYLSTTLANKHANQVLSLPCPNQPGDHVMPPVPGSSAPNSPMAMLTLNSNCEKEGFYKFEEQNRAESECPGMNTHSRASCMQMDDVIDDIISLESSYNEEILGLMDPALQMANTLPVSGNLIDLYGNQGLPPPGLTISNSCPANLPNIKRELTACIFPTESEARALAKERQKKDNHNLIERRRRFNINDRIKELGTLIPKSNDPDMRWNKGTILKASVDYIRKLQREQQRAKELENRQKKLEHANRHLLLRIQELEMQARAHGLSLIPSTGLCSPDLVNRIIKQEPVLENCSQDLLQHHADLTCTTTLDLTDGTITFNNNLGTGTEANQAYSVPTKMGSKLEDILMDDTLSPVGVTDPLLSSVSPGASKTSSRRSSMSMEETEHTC

[4] = target: Latent membrane protein 1 (Human herpesvirus 4 (strain B95-8), UniProt P03230); assay: TES1-eGFP NF-kB reporter inhibition versus Tet-On dsRED, dose response, selectivity assay for LMP1 NF-kB inhibitor project, imaging, HEK293T, dual-color eGFP/dsRED, cherry-picks (AID 588398); format: functional, cell-based
Chain of Latent membrane protein 1 (P03230 whole entry): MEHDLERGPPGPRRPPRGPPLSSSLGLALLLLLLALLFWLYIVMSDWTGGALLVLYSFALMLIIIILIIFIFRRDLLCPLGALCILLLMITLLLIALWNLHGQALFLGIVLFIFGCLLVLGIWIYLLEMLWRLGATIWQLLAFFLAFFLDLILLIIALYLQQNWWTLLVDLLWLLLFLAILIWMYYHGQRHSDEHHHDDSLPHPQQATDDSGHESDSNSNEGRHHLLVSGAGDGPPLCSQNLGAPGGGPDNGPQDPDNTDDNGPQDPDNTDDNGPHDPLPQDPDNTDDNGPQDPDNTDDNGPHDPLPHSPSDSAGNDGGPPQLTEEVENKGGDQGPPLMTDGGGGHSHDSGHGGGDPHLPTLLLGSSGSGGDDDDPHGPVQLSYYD

HEK293 = assay: inhibitors of LMP1-driven NF-kB reporter, dose response, cell-based, HEK293, luciferase, cherry-pick (AID 588343); format: functional; settings: Homo sapiens
[5] = A cytotoxicity screen of small molecule inhibitors of the PhoP region in Salmonella typhi identified in the primary screen. [Related pubchem assays: 1850, 1864, 1985 ]; format: functional
Caspase-3 [6] = target: T3, Caspase-3 (Homo sapiens, UniProt P42574); assay: caspase-3 inhibitors as off-family protease, SAR follow-up, selectivity assay for SENP protease inhibitor project, biochemical, luminescence, set 2 (AID 588599); format: functional
T3 sequence (P42574 whole entry): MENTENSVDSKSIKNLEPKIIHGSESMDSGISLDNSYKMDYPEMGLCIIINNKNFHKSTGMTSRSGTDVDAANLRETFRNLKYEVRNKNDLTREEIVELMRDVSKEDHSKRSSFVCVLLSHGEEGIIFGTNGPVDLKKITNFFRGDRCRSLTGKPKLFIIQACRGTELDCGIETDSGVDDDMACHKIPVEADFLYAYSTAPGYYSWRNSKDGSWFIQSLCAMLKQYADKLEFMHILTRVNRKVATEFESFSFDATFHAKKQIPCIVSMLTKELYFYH

[7] = target: T4, Sentrin-specific protease 8 (Homo sapiens, UniProt Q96LD8); assay: SENP8 protease inhibitors, SAR follow-up, biochemical, luminescence (AID 504501); format: functional
T4 sequence (Q96LD8 whole entry): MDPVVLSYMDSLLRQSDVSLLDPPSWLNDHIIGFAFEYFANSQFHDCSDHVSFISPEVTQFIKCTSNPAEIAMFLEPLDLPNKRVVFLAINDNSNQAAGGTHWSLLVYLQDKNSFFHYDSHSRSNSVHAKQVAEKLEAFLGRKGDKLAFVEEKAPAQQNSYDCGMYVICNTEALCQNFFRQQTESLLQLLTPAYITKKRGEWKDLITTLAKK

[8] = target: T5, Sentrin-specific protease 7 (Homo sapiens, UniProt Q9BQF6); assay: SENP7 protease inhibitors, SAR follow-up, biochemical, luminescence, set 2 (AID 588600); format: functional
T5 sequence (Q9BQF6 whole entry): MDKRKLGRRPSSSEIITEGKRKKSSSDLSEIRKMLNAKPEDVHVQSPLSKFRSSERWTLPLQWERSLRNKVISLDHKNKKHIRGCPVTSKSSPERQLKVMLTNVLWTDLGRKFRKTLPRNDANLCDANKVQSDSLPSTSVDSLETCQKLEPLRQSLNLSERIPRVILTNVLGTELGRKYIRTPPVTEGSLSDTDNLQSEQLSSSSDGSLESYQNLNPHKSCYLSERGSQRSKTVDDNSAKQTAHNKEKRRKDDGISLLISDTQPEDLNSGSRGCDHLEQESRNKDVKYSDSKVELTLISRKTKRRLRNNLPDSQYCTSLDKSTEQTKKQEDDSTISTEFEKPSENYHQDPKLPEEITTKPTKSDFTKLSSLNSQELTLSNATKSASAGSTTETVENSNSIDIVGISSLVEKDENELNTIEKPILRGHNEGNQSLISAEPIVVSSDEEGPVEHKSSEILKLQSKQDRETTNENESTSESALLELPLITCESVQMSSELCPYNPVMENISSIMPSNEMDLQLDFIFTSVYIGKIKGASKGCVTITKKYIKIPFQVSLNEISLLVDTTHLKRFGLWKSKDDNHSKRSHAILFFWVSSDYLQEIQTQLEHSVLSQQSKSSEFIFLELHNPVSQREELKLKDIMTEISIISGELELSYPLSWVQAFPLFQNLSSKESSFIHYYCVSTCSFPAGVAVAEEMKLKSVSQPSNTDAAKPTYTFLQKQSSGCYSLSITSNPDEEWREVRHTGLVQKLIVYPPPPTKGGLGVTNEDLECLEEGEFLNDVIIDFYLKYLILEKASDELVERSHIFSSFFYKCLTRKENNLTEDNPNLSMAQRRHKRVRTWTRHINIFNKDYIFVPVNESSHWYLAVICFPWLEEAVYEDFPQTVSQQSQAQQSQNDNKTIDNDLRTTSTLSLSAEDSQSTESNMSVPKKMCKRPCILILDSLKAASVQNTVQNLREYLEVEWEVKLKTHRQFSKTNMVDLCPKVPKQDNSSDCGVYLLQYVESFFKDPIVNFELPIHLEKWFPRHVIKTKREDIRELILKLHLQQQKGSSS

[9] = target: T6, Sentrin-specific protease 6 (Homo sapiens, UniProt Q9GZR1); assay: SAR Analysis of small molecule inhibitors of Sentrin-specific protease 6 (SENP6) using a Luminescent assay. [Related pubchem assays (depositor defined):AID2582, AID2599]; format: functional
T6 sequence (Q9GZR1 whole entry): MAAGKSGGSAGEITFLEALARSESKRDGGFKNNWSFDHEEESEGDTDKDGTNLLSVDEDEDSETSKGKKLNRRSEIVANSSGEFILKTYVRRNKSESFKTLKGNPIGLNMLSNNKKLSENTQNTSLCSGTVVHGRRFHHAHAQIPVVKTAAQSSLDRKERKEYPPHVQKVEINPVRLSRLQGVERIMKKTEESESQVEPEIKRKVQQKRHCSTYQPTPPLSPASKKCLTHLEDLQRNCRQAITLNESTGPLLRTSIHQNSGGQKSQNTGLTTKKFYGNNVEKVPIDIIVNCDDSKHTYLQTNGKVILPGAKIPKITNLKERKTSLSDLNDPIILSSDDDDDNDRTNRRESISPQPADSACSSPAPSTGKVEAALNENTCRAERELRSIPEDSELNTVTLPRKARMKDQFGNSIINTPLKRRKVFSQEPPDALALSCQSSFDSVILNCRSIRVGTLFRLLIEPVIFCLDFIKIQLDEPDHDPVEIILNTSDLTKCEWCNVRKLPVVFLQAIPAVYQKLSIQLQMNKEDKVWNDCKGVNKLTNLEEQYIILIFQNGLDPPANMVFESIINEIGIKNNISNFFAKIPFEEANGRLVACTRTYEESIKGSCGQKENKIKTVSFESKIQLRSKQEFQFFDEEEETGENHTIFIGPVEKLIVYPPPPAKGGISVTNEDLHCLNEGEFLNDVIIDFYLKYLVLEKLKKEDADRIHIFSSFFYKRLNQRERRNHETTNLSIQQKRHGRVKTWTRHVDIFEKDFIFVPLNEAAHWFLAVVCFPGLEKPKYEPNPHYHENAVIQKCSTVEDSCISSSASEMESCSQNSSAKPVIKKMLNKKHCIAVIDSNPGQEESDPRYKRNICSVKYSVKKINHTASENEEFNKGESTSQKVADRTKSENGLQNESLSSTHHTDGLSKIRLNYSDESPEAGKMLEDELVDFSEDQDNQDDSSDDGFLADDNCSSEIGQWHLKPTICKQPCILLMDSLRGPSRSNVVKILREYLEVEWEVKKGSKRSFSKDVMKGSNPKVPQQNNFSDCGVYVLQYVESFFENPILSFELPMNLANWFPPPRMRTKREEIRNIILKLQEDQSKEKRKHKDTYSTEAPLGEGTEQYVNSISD

[10] = target: T5, Sentrin-specific protease 7; assay: SENP7 protease inhibitors, SAR follow-up, biochemical, luminescence (AID 504497); format: functional
Caspase-3 [11] = target: T3, Caspase-3; assay: SAR Analysis of small molecule inhibitors of Sentrin-specific proteases (SENPs) using a Caspase-3 Selectivity assay. [Related pubchem assays (depositor defined):AID2540, AID2599, AID434973, AID489001]; format: functional
[12] = target: T4, Sentrin-specific protease 8; assay: SENP8 protease inhibitors, SAR follow-up, biochemical, luminescence, set 2 (AID 588601); format: functional

O=C(NC1CCCCC1)c1cc(C2CC2)on1
inactive: EC50 [1] > 50 µM | EC50 [2] > 50 µM

Cc1cc(NCCCn2ccnc2)n2ncc(-c3ccccc3)c2n1
active: AC50 [3] 11 µM | AC50 [4] 206 µM | AC50 (HEK293) 2.56 µM | EC50 [5] > 50 µM

Fc1ccc(-c2noc(/C=C/c3ccccc3)n2)cc1
active: IC50 (Caspase-3 [6]) 20.5 µM | IC50 [8] 3.38 µM | IC50 [10] 8.8 µM | IC50 (Caspase-3 [11]) 18 µM | IC50 [12] 2.98 µM
inactive: IC50 [7] > 99 µM | IC50 [9] > 99 µM
